Data from US20210387949A1, “NEW SELECTIVE MODULATORS OF INSECT NICOTINIC ACETYLCHOLINE RECEPTORS” (UNIVERSITE DE NANTES, priority 2018, published 2021).
Where two headings read alike, the source gives them in different places.

Assays:
[1] = system: Honey bees Apis mellifera; settings: literature values (Iwasa 2004; Stark 1995); cited from earlier work
[2] = system: cercal nerve giant interneuron synapses within the cockroach sixth abdominal ganglion (A6); assay: Mannitol-gap recordings, neurotoxic effect on insect cholinergic synaptic transmission; format: cell-based; settings: for EC50: read-out: EC50 of depolarization; for Depolarization of the sixth abdominal ganglion: in words; for Reversal of synaptic depolarization after wash-out: effect also observed 2 h after application
Experimental: Neurotoxic effect was studied using mannitol-gap recordings. Experiments were performed on the cercal nerve giant interneuron synapses located within the cockroach sixth abdominal ganglion (A6) using the mannitol-gap method pioneered by Callec (Callec, J. J.; Sattelle, D. B., A simple technique for monitoring the synaptic actions of pharmacological agents. J Exp Biol 1973, 59, (3), 725-38; and Callec, J. J.; Sattelle, D. B.; Hue, B.; Pelhate, M., Central synaptic actions of pharmacological agents in insects: oil-gap and mannitol-gap studies. In Neurotox 79, Sherwood, M., Ed. Plenum Press: New York, 1980; pp 93-100).
Electrical events were recorded using external electrodes. A non-electrolyte medium (mannitol) was interposed between the recording sites (Callec, J. J.; Sattelle, D. B.; Hue, B.; Pelhate, M., Central synaptic actions of pharmacological agents in insects: oil-gap and mannitol-gap studies. In Neurotox 79, Sherwood, M., Ed. Plenum Press: New York, 1980; pp 93-100). The main advantages of this method were to preserve the recordings of the unitary or evoked excitatory postsynaptic potentials (EPSP) and the postsynaptic polarization. Consequently, monitoring the variations of EPSP amplitude and/or polarization induced by drug application enables dose-response curves to be recorded. Moreover, this set-up allows long-term experiments to be performed and test solutions can be readily applied without any of the technical problems associated with intracellular recording.
A6 was carefully desheathed to facilitate penetration of bath-applied drugs. The recording electrodes were connected to the input of high-impedance amplifier, whose outputs were passed to a numeric oscilloscope (Hameg, Germany) and a chart recorder (Kipp and Zonen, B D 111, Holland). Variation of postsynaptic polarization was monitored on a chart recorder and the cEPSPs were evoked by electrical stimulations of the ipsilateral cercal nerve XI using a dual pulse stimulator (Campden 915, USA). TMX was applied during 3 min in the same conditions as previously published (Buckingham, S.; Lapied, B.; Corronc, H.; Sattelle, F., Imidacloprid actions on insect neuronal acetylcholine receptors. J Exp Biol 1997, 200, (Pt 21), 2685-92; and Thany, S. H., Agonist actions of clothianidin on synaptic and extrasynaptic nicotinic acetylcholine receptors expressed on cockroach sixth abdominal ganglion. Neurotoxicology 2009, 30, (6), 1045-52), with a micropump fast perfusion (Harvard Apparatus) that produced a constant solution exchange (500 μL/min). All muscarinic and nicotinic antagonists were bath-applied for at least 20 min before a single application of TMX. Recordings were made at room temperature.
To compare the depolarizations, the peak amplitudes were normalized (V/Vmax). The dose-response curve was derived from the fitted curve following the equation:
y=Vmin+(Vmax−Vmin)/(1+10^(log EC^50^−X)H)
where Y is the normalized response, Vmax and Vmin are the maximum and minimum responses, H is the Hill coefficient, EC50 is the concentration giving half the maximum response and X is the logarithm of the compound concentration.

honeybee Apis mellifera = assay: Oral toxicity against honeybee; format: in vivo; settings: for % mortality 24 h / % mortality 48 h: oral, DMSO 1%; for Toxicity for bees: higher concentrations (150 ng/bee), in words
Experimental: Honeybees were kept from hives located at the University of Orleans and transferred to the laboratory incubators for experiments (30±1.5° C.; 12/12 h 0/N). They were placed in six different cages, 20 bees per cage, with 40% sucrose solution (control group) or tested compounds.
All tests were carried out using adult worker honeybees, Apis mellifera L (Hymenoptera: Apidae) taken from two queen colonies. These colonies were disease-free and had received no chemical treatments (Eg. Varroacide). For oral toxicity tests, adult worker bees were collected from the hive combs (avoiding the brood nest area) or from the flight board.
Stock solutions of compounds were dissolved in dimethyl sulfoxide (DMSO) to obtain 500 ng/μL and stocked at −20° C. These samples were then diluted in sucrose solution (40%; w/v), for final experiments. […] Solutions of the test doses were stirred immediately prior to use and were visually homogenous when proposed to bees. Bee allocation to the treatment groups was made impartially. Before being used for the test, bees were subjected to a starvation period of between 2 h and 3 h under test conditions (For review, see Nauen, R.; Ebbinghaus-Kintscher, U.; Schmuck, R., Toxicity and nicotinic acetylcholine receptor interaction of imidacloprid and its metabolites in Apis mellifera (Hymenoptera: Apidae). Pest Management Science 2001, 57, (7), 577-586).
Six batches of bees (20 bees per batch) were subjected to different doses of the test compound (nominal doses between 50 ng/bee and […]). Doses were determined according to the lethal dose of neonicotinoid insecticides inducing bee toxic effects (Table 3). Controls received sucrose solution containing 0.25% DMSO. The glass test feeders containing any unconsumed portions of the doses were removed and after each experiment a fresh sucrose solution was supplied in feeders within the cages. For each concentration three replicates were made (180 bees/concentration). Mortality was measured at 24 h and 48 h after treatment.

[3] = bath application, dose-response curve of sixth abdominal ganglion depolarization

## CN/C(=N\[N+](=O)[O-])NCc1cnc(Cl)s1 [Clothianidin]
[1]
  LD50: 21.8 ng/bee (Iwasa 2004)

## Cc1ccc(S(=O)(=O)N2CCCC2)cc1 [Compound 3aa, 1-tosylpyrrolidine]
other
  melting point: 129 °C

## Cc1ccc(S(=O)(=O)N2CCCC2C#N)cc1 (centres unmarked) [Compound 3ab, 1-tosylpyrrolidine-2-carbonitrile]
other
  melting point: 102 °C

## Cc1ccc(S(=O)(=O)N2CCC[C@H]2C#N)cc1 [Compound 3ac, (S)-1-tosylpyrrolidine-2-carbonitrile]
other
  melting point: 102 °C

## O=S(=O)(c1ccc(Cl)cc1)N1CCCC1 [Compound 3ba, 1-((4-chlorophenyl)sulfonyl) pyrrolidine]
other
  melting point: 106 °C

## N#CC1CCCN1S(=O)(=O)c1ccc(Cl)cc1 (centres unmarked) [Compound 3bb, 1-((4-chlorophenyl)sulfonyl) pyrrolidine-2-carbonitrile]
other
  melting point: 115 °C

## N#C[C@@H]1CCCN1S(=O)(=O)c1ccc(Cl)cc1 [Compound 3bc, (S)-1-((4-chlorophenyl)sulfonyl) pyrrolidine-2-carbonitrile]
other
  melting point: 115 °C

## O=S(=O)(c1ccc(Cl)nc1)N1CCCC1 [Compound 3da, 2-chloro-5-(pyrrolidin-1-ylsulfonyl)pyridine]
other
  melting point: 134 °C

## N#C[C@@H]1CCCN1S(=O)(=O)c1ccc(Cl)nc1 [Compound 3i, (S)-1-((6-chloropyridin-3-yl)sulfonyl)pyrrolidine-2-carbonitrile]
[2]; [3]
  EC50: 19 µM
[2]; bath application
  Depolarization of the sixth abdominal ganglion: strong depolarization
[2]
  Reversal of synaptic depolarization after wash-out: not reversed after wash-out
Honeybee Apis mellifera; 50 ng/bee
  % mortality 24 h: 3.3%
  % mortality 48 h: 10.0%
Honeybee Apis mellifera; 150 ng/bee
  % mortality 24 h: 0%
  % mortality 48 h: 0%

## COc1ccc(S(=O)(=O)N2CCCC2)cn1 [Compound 3ii, 2-methoxy-5-(pyrrolidin-1-ylsulfonyl)pyridine]
[2]; [3]
  EC50: 8.02 µM
[2]; bath application
  Depolarization of the sixth abdominal ganglion: strong depolarization
[2]
  Reversal of synaptic depolarization after wash-out: not reversed after wash-out
Honeybee Apis mellifera; 50 ng/bee
  % mortality 24 h: 0%
  % mortality 48 h: 3.3%
Honeybee Apis mellifera; 150 ng/bee
  % mortality 24 h: 0%
  % mortality 48 h: 1.2%
Honeybee Apis mellifera
  Toxicity for bees: not toxic for bees

## COc1ccc(S(=O)(=O)N2CCCC2C#N)cn1 (centres unmarked) [Compound 3iii, 1-((6-methoxypyridin-3-yl)sulfonyl)pyrrolidine-2-carbonitrile]
[2]; [3]
  EC50: 4.25 µM
[2]; bath application
  Depolarization of the sixth abdominal ganglion: strong depolarization
[2]
  Reversal of synaptic depolarization after wash-out: not reversed after wash-out
Honeybee Apis mellifera; 50 ng/bee
  % mortality 24 h: 3.3%
  % mortality 48 h: 5.0%
Honeybee Apis mellifera; 150 ng/bee
  % mortality 24 h: 2.5%
  % mortality 48 h: 3.7%

## Cc1ccc(S(=O)(=O)N2CCC[C@H]2C#N)cn1 [Compound 3iv, (S)-1-((6-methylpyridin-3-yl)sulfonyl)pyrrolidine-2-carbonitrile]
[2]; bath application
  Depolarization of the sixth abdominal ganglion: strong depolarization
[2]
  Reversal of synaptic depolarization after wash-out: not reversed after wash-out
Honeybee Apis mellifera; 50 ng/bee
  % mortality 24 h: 0%
  % mortality 48 h: 0%
Honeybee Apis mellifera; 150 ng/bee
  % mortality 24 h: 0%
  % mortality 48 h: 0%
Honeybee Apis mellifera
  Toxicity for bees: not toxic for bees

## CN/C(=N/CC1CCOC1)N[N+](=O)[O-] (centres unmarked) [Dinotefuran]
[1]
  LD50: 75 ng/bee (Iwasa 2004)

## O=[N+]([O-])NC1=NCCN1Cc1ccc(Cl)nc1 [Imidacloprid, reference compound]
[2]
  EC50: ~15 µM

## CCN(Cc1ccc(Cl)nc1)/C(=C/[N+](=O)[O-])NC [Nitenpyram]
[1]
  LD50: 138 ng/bee

## CN1COCN(Cc2cnc(Cl)s2)/C1=N\[N+](=O)[O-] [Thiamethoxam]
[1]
  LD50: 29.9 ng/bee (Iwasa 2004)
